# Source: patent US10954240B2, “Compounds inhibiting leucine-rich repeat kinase enzyme activity” (Merck Sharp & Dohme Corp., priority 2014, dated 2021)
# pIC50: −log10 of the molar value. Where a name gives a salt, the structure may show the parent alone.
# Biological target: LRRK2 (G2019S mutation, GST-LRRK2 (amino acids 970-2527)) (Homo sapiens (Human), UniProt Q5S007, G2019S)
# Assay: LRRK2 Km ATP LanthaScreen Assay
# Assay type: biochemical
# Settings: mean IC50 of several test results
# Text: Unless otherwise noted, all LRRK2 IC50 data presented in tables refers to the LRRK2 Km ATP LanthaScreen™ Assay that is described in the Biological Assay section.
# The data presented for the Km ATP LanthaScreen™ Assay represents mean IC50 values based on several test results and may have reasonable deviations depending on the specific conditions and reagents used. Reagents for the LRRK2 Km ATP LanthaScreen™ Assay were purchased from Life Technologies Corporation.
# LRRK2 Km ATP LanthaScreen™ Assay
# a) 400 nl of a 1:2.15 serial dilution of test compound (98 μM top assay concentration) is spotted via Labcyte Echo to certain wells in a 384 well black, untreated plate. Control wells contain 400 nl of either DMSO or 400 nl of a known inhibitor in DMSO.
# c) A 30 minute room temperature incubation is followed by addition of 10 μl of 800 nM fluorescein labeled LRRKtide peptide substrate and 186 μM ATP solution in 1× assay buffer to all wells.
# d) After a 60 minute room temperature incubation, 20 μl of TR-FRET Dilution Buffer (Invitrogen PV3756B) containing 4 nM Tb-labeled anti-phospho LRRKtide antibody and 20 mM EDTA is added to all wells.
# e) Plates are incubated at room temperature for 1 hour and read on an Envision™ multi-mode plate reader with LanthaScreen™ settings. Results are analysed using Assay Data Analyzer.
# Chain of LRRK2 (G2019S mutation, GST-LRRK2 (amino acids 970-2527)) (Q5S007 970-2527 G2019S): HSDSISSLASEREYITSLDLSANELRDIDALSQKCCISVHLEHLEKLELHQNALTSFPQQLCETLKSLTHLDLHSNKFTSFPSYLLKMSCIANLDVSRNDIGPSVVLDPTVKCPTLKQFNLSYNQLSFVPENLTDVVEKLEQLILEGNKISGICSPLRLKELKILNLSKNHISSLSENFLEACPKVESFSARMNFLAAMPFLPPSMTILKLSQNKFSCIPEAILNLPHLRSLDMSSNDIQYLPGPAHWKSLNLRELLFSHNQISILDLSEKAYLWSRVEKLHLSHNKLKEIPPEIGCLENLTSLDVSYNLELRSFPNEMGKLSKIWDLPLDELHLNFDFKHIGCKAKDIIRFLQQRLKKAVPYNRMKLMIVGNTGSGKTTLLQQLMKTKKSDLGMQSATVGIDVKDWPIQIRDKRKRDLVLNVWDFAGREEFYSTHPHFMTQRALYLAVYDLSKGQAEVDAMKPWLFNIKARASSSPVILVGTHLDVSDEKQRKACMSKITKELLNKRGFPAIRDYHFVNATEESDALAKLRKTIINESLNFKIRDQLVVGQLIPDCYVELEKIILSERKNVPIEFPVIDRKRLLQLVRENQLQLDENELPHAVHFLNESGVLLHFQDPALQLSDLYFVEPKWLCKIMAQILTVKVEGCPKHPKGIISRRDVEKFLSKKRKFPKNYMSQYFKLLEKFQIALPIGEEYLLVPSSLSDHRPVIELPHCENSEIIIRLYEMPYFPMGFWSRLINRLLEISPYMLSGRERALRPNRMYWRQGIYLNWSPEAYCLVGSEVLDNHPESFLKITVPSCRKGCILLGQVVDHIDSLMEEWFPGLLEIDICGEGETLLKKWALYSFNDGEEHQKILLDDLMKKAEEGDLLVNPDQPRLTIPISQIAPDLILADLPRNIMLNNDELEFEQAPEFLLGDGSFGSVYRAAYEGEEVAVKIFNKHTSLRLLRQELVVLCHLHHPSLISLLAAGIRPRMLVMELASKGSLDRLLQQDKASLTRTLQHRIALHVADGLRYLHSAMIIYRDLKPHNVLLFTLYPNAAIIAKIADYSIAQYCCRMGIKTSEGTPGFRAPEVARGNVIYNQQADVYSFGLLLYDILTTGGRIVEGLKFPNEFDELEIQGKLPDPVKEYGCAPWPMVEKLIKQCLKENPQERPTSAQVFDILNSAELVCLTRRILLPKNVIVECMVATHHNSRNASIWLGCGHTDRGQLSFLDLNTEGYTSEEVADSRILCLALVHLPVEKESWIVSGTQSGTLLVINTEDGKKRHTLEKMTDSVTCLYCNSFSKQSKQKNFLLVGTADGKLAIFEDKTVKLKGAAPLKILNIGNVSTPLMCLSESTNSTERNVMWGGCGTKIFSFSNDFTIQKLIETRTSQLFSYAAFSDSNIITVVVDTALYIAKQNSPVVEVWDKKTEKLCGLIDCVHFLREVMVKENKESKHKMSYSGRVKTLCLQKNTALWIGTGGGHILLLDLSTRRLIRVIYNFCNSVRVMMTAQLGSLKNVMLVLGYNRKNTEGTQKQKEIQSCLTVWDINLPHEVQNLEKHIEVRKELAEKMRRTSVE
row,Compound,pIC50
1,"c1ccc2c(c1)cnn2-c1ccnc(N2CCOCC2)c1 [Example 2, 4-(4-(1H-indazol-1-yl)pyridin-2-yl)morpholine]",6.20
2,"Cn1cc(-c2cc(F)c3cnn(-c4ccnc(N5CCOCC5)c4)c3c2)cn1 [Example 3, 4-(4-(4-fluoro-6-(1-methyl-1H-pyrazol-4-yl)-1H-indazol-1-yl)pyridin-2-yl)morpholine]",6.64
3,"CC(C)Oc1ccc2cnn(-c3ccnc(N4CCOCC4)c3)c2c1 [Example 4, 4-(4-(6-isopropoxy-1H-indazol-1-yl)pyridin-2-yl)morpholine hydrochloride]",6.91
4,"Cn1cncc1-c1ccc2cnn(-c3ccnc(N4CCOCC4)c3)c2c1 [Example 6, 4-(4-(6-(1-methyl-1H-imidazol-5-yl)-1H-indazol-1-yl)pyridin-2-yl)morpholine]",6.92
5,"CN1CCN(c2cc(-n3ncc4ccc(-c5cnn(C)c5)cc43)ccn2)CC1 [Example 9, 6-(1-methyl-1H-pyrazol-4-yl)-1-(2-(4-methylpiperazin-1-yl)pyridin-4-yl)-1H-indazole]",7.25
6,"CN1CCN(c2cc(-n3ncc4ccc(-c5cnn(C)c5)cc43)ccn2)CC1=O [Example 10, 1-methyl-4-(4-(6-(1-methyl-1H-pyrazol-4-yl)-1H-indazol-1-yl)pyridin-2-yl)piperazin-2-one]",6.90
7,"Cn1cc(-c2ccc3cnn(-c4ccnc(N5CC(F)(F)C5)c4)c3c2)cn1 [Example 11, 1-(2-(3,3-difluoroazetidin-1-yl)pyridin-4-yl)-6-(1-methyl-1H-pyrazol-4-yl)-1H-indazole]",6.65
8,"Cn1cc(-c2ccc3cnn(-c4ccnc(N5CC[C@H](F)C5)c4)c3c2)cn1 [Example 13, (S)-1-(2-(3-fluoropyrrolidin-1-yl)pyridin-4-yl)-6-(1-methyl-1H-pyrazol-4-yl)-1H-indazole]",6.97
9,"Cn1cc(-c2ccc3cnn(-c4ccnc(N5CC(F)C5)c4)c3c2)cn1 [Example 14, 1-(2-(3-fluoroazetidin-1-yl)pyridin-4-yl)-6-(1-methyl-1H-pyrazol-4-yl)-1H-indazole]",6.84
10,"Cn1cc(-c2ccc3cnn(-c4ccnc(N5CCN(C(=O)OC(C)(C)C)CC5)c4)c3c2)cn1 [Example 15, tert-butyl 4-(4-(6-(1-methyl-1H-pyrazol-4-yl)-1H-indazol-1-yl)pyridin-2-yl)piperazine-1-carboxylate]",7.47
11,"Cn1cc(-c2ccc3cnn(-c4ccnc(N5CCC(S(C)(=O)=O)CC5)c4)c3c2)cn1 [Example 16, 6-(1-methyl-1H-pyrazol-4-yl)-1-(2-(4-(methylsulfonyl)piperidin-1-yl)pyridin-4-yl)-1H-indazole]",6.89
12,"c1cc(-n2ncc3ccc(-c4cn[nH]c4)cc32)cc(N2CCOCC2)n1 [Example 18, 4-(4-(6-(1H-pyrazol-4-yl)-1H-indazol-1-yl)pyridin-2-yl)morpholine]",7.14
13,"CCn1cc(-c2ccc3cnn(-c4ccnc(N5CCOCC5)c4)c3c2)cn1 [Example 19, 4-(4-(6-(1-ethyl-1H-pyrazol-4-yl)-1H-indazol-1-yl)pyridin-2-yl)morpholine]",6.89
14,"CC(C)Oc1ccc2cnn(-c3ccnc(N4CCn5ccnc5C4)c3)c2c1 [Example 23, 7-(4-(6-isopropoxy-1H-indazol-1-yl)pyridin-2-yl)-5,6,7,8-tetrahydroimidazo[1,2-a]pyrazine]",6.35
15,"CCc1nnc2n1CCN(c1cc(-n3ncc4ccc(OC(C)C)cc43)ccn1)C2 [Example 24, 3-ethyl-7-(4-(6-isopropoxy-1H-indazol-1-yl)pyridin-2-yl)-5,6,7,8-tetrahydro-[1,2,4]triazolo[4,3-a]pyrazine]",6.36
16,"CC(C)Oc1ccc2cnn(-c3ccnc(N4CCOC(CCO)C4)c3)c2c1 (centres unmarked) [Example 25, 2-(4-(4-(6-isopropoxy-1H-indazol-1-yl)pyridin-2-yl)morpholin-2-yl)ethanol]",6.39

row,Compound,pIC50
1,"CC(C)Oc1ccc2cnn(-c3ccnc(N4CCC4)c3)c2c1 [Example 26, 1-(2-(azetidin-1-yl)pyridin-4-yl)-6-isopropoxy-1H-indazole]",6.23
2,"CC(C)Oc1ccc2cnn(-c3ccnc(N4CCN(CC5CCC5)CC4)c3)c2c1 [Example 27, 1-(2-(4-(cyclobutylmethyl)piperazin-1-yl)pyridin-4-yl)-6-isopropoxy-1H-indazole]",6.44
3,"CC(C)Oc1ccc2cnn(-c3ccnc(N4CCO[C@@H](C)C4)c3)c2c1 [Example 28, (S)-4-(4-(6-isopropoxy-1H-indazol-1-yl)pyridin-2-yl)-2-methylmorpholine]",6.21
4,"CC(C)Oc1ccc2cnn(-c3ccnc(N4CCO[C@H](C)C4)c3)c2c1 [Example 29, (R)-4-(4-(6-isopropoxy-1H-indazol-1-yl)pyridin-2-yl)-2-methylmorpholine]",6.31
5,"CC(C)Oc1ccc2cnn(-c3ccnc(N4CC(C(C)(C)O)C4)c3)c2c1 [Example 30, 2-(1-(4-(6-isopropoxy-1H-indazol-1-yl)pyridin-2-yl)azetidin-3-yl)propan-2-ol]",6.38
6,"CC(C)Oc1ccc2cnn(-c3ccnc(N4CCN(C)C(=O)C4)c3)c2c1 [Example 31, 4-(4-(6-isopropoxy-1H-indazol-1-yl)pyridin-2-yl)-1-methylpiperazin-2-one]",6.35
7,"CC(C)Oc1ccc2cnn(-c3ccnc(N4C[C@@H](C)O[C@@H](C)C4)c3)c2c1 [Example 32, cis-4-(4-(6-isopropoxy-1H-indazol-1-yl)pyridin-2-yl)-2,6-dimethylmorpholine]",6.61
8,"CC(C)Oc1ccc2cnn(-c3ccnc(N4CCN(c5ncccn5)CC4)c3)c2c1 [Example 33, 6-isopropoxy-1-(2-(4-(pyrimidin-2-yl)piperazin-1-yl)pyridin-4-yl)-1H-indazole]",6.49
9,"CC(C)Oc1ccc2cnn(-c3ccnc(N4CCC(O)C4)c3)c2c1 (centres unmarked) [Example 34, 1-(4-(6-isopropoxy-1H-indazol-1-yl)pyridin-2-yl)pyrrolidin-3-ol]",6.51
10,"CC(C)Oc1ccc2cnn(-c3ccnc(N4CCN(C)CC4)c3)c2c1 [Example 35, 6-isopropoxy-1-(2-(4-methylpiperazin-1-yl)pyridin-4-yl)-1H-indazole]",6.74
11,"COC1CCCN(c2cc(-n3ncc4ccc(OC(C)C)cc43)ccn2)C1 (centres unmarked) [Example 36, 6-isopropoxy-1-(2-(3-methoxypiperidin-1-yl)pyridin-4-yl)-1H-indazole]",6.22
12,"CC(C)Oc1ccc2cnn(-c3ccnc(N4CCCC4)c3)c2c1 [Example 37, 6-isopropoxy-1-(2-(pyrrolidin-1-yl)pyridin-4-yl)-1H-indazole]",6.64
13,"CC(C)Oc1ccc2cnn(-c3ccnc(N4CCN(CCO)CC4)c3)c2c1 [Example 39, 2-(4-(4-(6-isopropoxy-1H-indazol-1-yl)pyridin-2-yl)piperazin-1-yl)ethanol]",6.71
14,"CC(C)Oc1ccc2cnn(-c3ccnc(N4CCC(O)CC4)c3)c2c1 [Example 40, 1-(4-(6-isopropoxy-1H-indazol-1-yl)pyridin-2-yl)piperidin-4-ol]",6.42
15,"COC1(C)CN(c2cc(-n3ncc4ccc(OC(C)C)cc43)ccn2)C1 [Example 41, 6-isopropoxy-1-(2-(3-methoxy-3-methylazetidin-1-yl)pyridin-4-yl)-1H-indazole]",6.05
16,"CC(C)Oc1ccc2cnn(-c3ccnc(N4CC[C@@H](F)C4)c3)c2c1 [Example 42, (R)-1-(2-(3-fluoropyrrolidin-1-yl)pyridin-4-yl)-6-isopropoxy-1H-indazole]",6.39
